Measurements: the supplement of paper PMC10307832

What was measured:
Experiment in all cases: relative viability (nuclei count vs DMSO), 5 days (fraction); higher = more cells survive
Bexarotene + Tozasertib = compound: C=C(c1ccc(C(=O)O)cc1)c1cc2c(cc1C)C(C)(C)CCC2(C)C [Bexarotene] + Cc1cc(Nc2cc(N3CCN(C)CC3)nc(Sc3ccc(NC(=O)C4CC4)cc3)n2)n[nH]1 [Tozasertib] (partner 0.1 µM)
Procedure, shortened: (§1)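 Dosing by pin tool came one day after lung cancer cell lines were seeded in 1536-well plates, using either one drug or a fixed anchor-drug dose plus five library-drug doses (not always all listed) in √10 steps. After 5 days, nuclei were counted on 4× images. Relative viability is treated-well nuclei count divided by vehicle-well nuclei count, and values are medians of duplicate plates.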

Bexarotene + OSI-027 = compound: C=C(c1ccc(C(=O)O)cc1)c1cc2c(cc1C)C(C)(C)CCC2(C)C [Bexarotene] + COc1cccc2cc(-c3nc([C@H]4CC[C@H](C(=O)O)CC4)n4ncnc(N)c34)[nH]c12 [OSI-027] (partner 0.5 µM)
Procedure, shortened: as §1

Bexarotene + Linsitinib = compound: C=C(c1ccc(C(=O)O)cc1)c1cc2c(cc1C)C(C)(C)CCC2(C)C [Bexarotene] + C[C@]1(O)C[C@@H](c2nc(-c3ccc4ccc(-c5ccccc5)nc4c3)c3c(N)nccn32)C1 [Linsitinib] (partner 1 µM)
Procedure, shortened: as §1

Bexarotene + Crizotinib = compound: C=C(c1ccc(C(=O)O)cc1)c1cc2c(cc1C)C(C)(C)CCC2(C)C [Bexarotene] + C[C@@H](Oc1cc(-c2cnn(C3CCNCC3)c2)cnc1N)c1c(Cl)ccc(F)c1Cl [Crizotinib] (partner 1 µM)
Procedure, shortened: as §1

Cell Line | relative viability (Bexarotene + Tozasertib; first compound 0.08 µM) | relative viability (Bexarotene + Tozasertib; first compound 0.253 µM) | relative viability (Bexarotene + Tozasertib; first compound 0.8 µM) | relative viability (Bexarotene + Tozasertib; first compound 2.53 µM) | relative viability (Bexarotene + Tozasertib; first compound 8 µM) | relative viability (Bexarotene + OSI-027; first compound 0.08 µM) | relative viability (Bexarotene + OSI-027; first compound 0.253 µM) | relative viability (Bexarotene + OSI-027; first compound 0.8 µM) | relative viability (Bexarotene + OSI-027; first compound 2.53 µM) | relative viability (Bexarotene + OSI-027; first compound 8 µM) | relative viability (Bexarotene + Linsitinib; first compound 0.08 µM) | relative viability (Bexarotene + Linsitinib; first compound 0.253 µM) | relative viability (Bexarotene + Linsitinib; first compound 0.8 µM) | relative viability (Bexarotene + Linsitinib; first compound 2.53 µM) | relative viability (Bexarotene + Linsitinib; first compound 8 µM) | relative viability (Bexarotene + Crizotinib; first compound 0.08 µM) | relative viability (Bexarotene + Crizotinib; first compound 0.253 µM) | relative viability (Bexarotene + Crizotinib; first compound 0.8 µM) | relative viability (Bexarotene + Crizotinib; first compound 2.53 µM) | relative viability (Bexarotene + Crizotinib; first compound 8 µM)
NCI-H441 | 0.709 | 0.758 | 0.631 | 0.676 | 0.656 | 0.763 | 0.67 | 0.645 | 0.585 | 0.672 | 0.587 | 0.583 | 0.578 | 0.616 | 0.556 | 0.742 | 0.708 | 0.94 | 0.635 | 0.738
NCI-H1793 | 0.308 | 0.319 | 0.394 | 0.287 | 0.337 | 0.339 | 0.319 | 0.313 | 0.203 | 0.311 | 1.08 | 0.959 | 1.03 | 0.914 | 0.897 | – | – | – | – | –
NCI-H23 | 0.383 | 0.619 | 0.365 | 0.287 | 0.333 | 0.607 | 0.597 | 0.6 | 0.55 | 0.461 | 0.737 | 0.673 | 0.533 | 0.638 | 0.654 | 0.534 | 0.561 | 0.514 | 0.647 | 0.529
HARA | 0.0906 | 0.0857 | 0.156 | 0.0749 | 0.0939 | 0.502 | 0.494 | 0.311 | 0.368 | 0.423 | 0.971 | 0.939 | 0.709 | 0.748 | 0.648 | 1.15 | 0.993 | 0.885 | 0.948 | 0.798
NCI-H1792 | – | – | – | – | – | 0.739 | 0.757 | 0.681 | 0.764 | 0.68 | 0.437 | 0.586 | 0.259 | 0.422 | 0.342 | 0.859 | 0.947 | 0.874 | 0.737 | 0.831
NCI-H1703 | – | – | – | – | – | – | – | – | – | – | 0.846 | 1.02 | 1.02 | 0.619 | 0.629 | 0.414 | 0.601 | 0.57 | 0.421 | 0.522
NCI-H1648 | 0.453 | 0.559 | 0.307 | 0.492 | 0.384 | 0.272 | 0.262 | 0.27 | 0.225 | 0.255 | – | – | – | – | – | – | – | – | – | –
CAL-12T | 0.264 | 0.309 | 0.227 | 0.276 | 0.244 | 0.523 | 0.416 | 0.49 | 0.439 | 0.441 | 0.682 | 0.894 | 0.727 | 0.707 | 0.656 | 0.73 | 0.608 | 0.466 | 0.564 | 0.489
NCI-H727 | 0.622 | 0.584 | 0.76 | 0.64 | 0.618 | 0.63 | 0.657 | 0.478 | 0.465 | 0.612 | 0.286 | 0.408 | 0.305 | 0.311 | 0.284 | 0.856 | 0.912 | 0.87 | 0.677 | 0.708
NCI-H2085 | 0.865 | 0.834 | 0.728 | 0.771 | 0.767 | 0.841 | 0.718 | 0.642 | 0.675 | 0.704 | 0.776 | 0.793 | 0.797 | 0.685 | 0.712 | 0.863 | 0.891 | 0.831 | 0.791 | 0.74
NCI-H1395 | 0.754 | 0.77 | 0.746 | 0.687 | 0.799 | 0.672 | 0.653 | 0.616 | 0.624 | 0.633 | 1.15 | 1.08 | 1.23 | 1.07 | 1.11 | – | – | – | – | –
SW 900 | 0.559 | 0.617 | 0.589 | 0.498 | 0.431 | 0.673 | 0.739 | 0.739 | 0.55 | 0.451 | – | – | – | – | – | – | – | – | – | –
NCI-H460 | 0.541 | 0.452 | 0.481 | 0.399 | 0.427 | 0.844 | 0.727 | 0.704 | 0.701 | 0.618 | 0.94 | 0.865 | 0.757 | 0.66 | 0.744 | 0.91 | 1.1 | 0.908 | 0.845 | 0.766
A549 | – | – | – | – | – | – | – | – | – | – | 0.543 | 0.539 | 0.586 | 0.579 | 0.451 | 0.736 | 0.793 | 0.65 | 0.669 | 0.594
IA-LM | – | – | – | – | – | – | – | – | – | – | 0.682 | 0.581 | 0.523 | 0.603 | 0.51 | – | 1.03 | 0.676 | 0.678 | 0.62
EKVX | 0.361 | 0.42 | 0.389 | 0.46 | 0.325 | 0.706 | 0.661 | 0.698 | 0.63 | 0.648 | 0.971 | 1.04 | 0.922 | 0.996 | 0.937 | 0.83 | 1.06 | 0.819 | 1.12 | 0.701
ChaGo-K-1 | 0.259 | 0.234 | 0.264 | 0.223 | 0.223 | 0.651 | 0.676 | 0.715 | 0.545 | 0.611 | – | – | – | – | – | 1.19 | 1.23 | 1.15 | – | 1.15
